In series [1] the test system is skin and the mucous membranes, particularly of the mouth, of the nasal fossa and of the throat. As to the kind of experiment: Organoleptic and physiological qualities of the compounds, noted by the inventors and flavor experts. The conditions noted are these: for Organoleptic qualities: Tables I-V. The series is classed as in vivo. An excerpt:
The invention is based on the following observation, made by the inventors and backed up by flavor experts, that the physiological effects of N-ethyl-2-(2-isopropyl-5-methylcyclohexyl)acetamide: As mentioned above, the compounds of general formula (I) according to the invention have particular physiological effects. They cause a cool and/or warm sensation on the skin and the mucous membranes, particularly of the mouth, of the nasal fossa and of the throat. Some of these amides cause a more or less intense refreshing physiological effect giving the foods to which they are added a sensation of freshness, whereas others cause a warming physiological effect. Some of them can also cause other physiological effects, such as tingling or a piquant-burning physiological effect characteristic of substances that activate the trigeminal nerve, therefore giving the foods to which they are added a spicy sensation.

Another series concerns panel of flavor experts. As to the kind of experiment: Comparative evaluation of enantiomers 1′ and 1″ and the racemic mixture by a panel of flavor experts. The series is classed as in vivo. The note with it: enantiomers taken separately versus each other and versus the racemic mixture. From the text:
The enantiopure compounds 1′ and 1″ obtained in examples 21 and 22 and also the racemic mixture of compound 1 obtained in example 2 were subjected to a panel of flavor experts for a comparative evaluation of the organoleptic and physiological qualities.

Series [2] has as its system skin and the mucous membranes, particularly of the mouth, of the nasal fossa and of the throat. The note with it: known from WO 2007/089252; cited from earlier work.
For series [3], the system named is panelists / flavor experts. Put plainly: Evaluation in mineral water. The series is classed as in vivo. On the procedure:
The molecule was evaluated in mineral water at a dosage of 30 ppm. […] The evaluation of the organoleptic properties of compound 10 was carried out in mineral water at a concentration of 1 ppm.

In series [4] the test system is panelists. Put plainly: Mint flavoring evaluated in fondant. In kind it is in vivo. The note with it: in a mint flavoring, dosage of 50 ppm. On the procedure: The molecule was tested in a mint flavoring and evaluated in fondant at a dosage of 50 ppm.
Series [5] deals with panelists. Put plainly: Citrus fruit flavoring in fatty filling. The series is classed as in vivo. The conditions noted are these: 10% in a citrus fruit flavoring, flavoring at 0.3% in fatty filling. On the procedure: The molecule was tested at 10% in a citrus fruit flavoring, the flavoring obtained was at a dose of 0.3% in fatty filling.
Series [6] deals with panelists. Put plainly: Curry/capsicum flavoring evaluated in crackers. In kind it is in vivo. The conditions noted are these: flavoring in crackers at 5% (final dosage 500 ppm). An excerpt:
Compound 10 was subsequently tested in a curry/capsicum flavoring and evaluated in crackers at 5% (final dosage: 500 ppm). [table]

For another series, the system named is panel of tasters. Put plainly: Flavorings for oro-dental hygiene (mouthwashes, toothpaste). The conditions noted are these: alcoholic mouthwash, nonalcoholic mouthwash and toothpaste. In kind it is in vivo. The protocol:
Compound 10 was tested in various applications: in an alcoholic mouthwash and a nonalcoholic mouthwash and in toothpaste. […] This molecule is very advantageous since it provides a tingling sensation on the edge of the tongue, which is piquant like a capsicum, and salivating. [table] Dosage of flavoring 0.2% Dosage of flavoring 0.2% Dosage of flavoring 1%

The structures appear in SMILES notation. Read-outs that look alike come from different tables or passages of the source.

In the case of `CC1CCC(C(C)C)C(CC(=O)NCC(C)(C)O)C1` (stereo not shown) [Compound 7, N-(2-hydroxy-2-methylpropyl)-2-(2-isopropyl-5-methylcyclohexyl)acetamide], in series [1], the Organoleptic qualities result was “Woody, piquant, and cold,”.
The melting point is the temperature, or range, at which the solid turns liquid. Regarding `CNC(=O)CC1=C(C(C)C)CCC(C)C1` (stereo not shown) [Compound 17, 2-(2-isopropyl-5-methylcyclohex-1-enyl)-N-methylacetamide], the melting point was 82 °C. For the same compound, the Organoleptic qualities result in series [1] was “Refreshing”.
In the case of `C=C(C)[C@H]1CC[C@H](C)C[C@H]1CC(=O)NC` [Compound 1′, N-methylamide of (1′S,2′S,5′S)-2-[(2′-isopropenyl-5′-methyl)cyclohex-1-yl]acetic acid], the “difference in perception threshold and intensity of the refreshing effect felt” value in the series on panel of flavor experts is reported as “did not make it possible to demonstrate any notable difference”.
Take `CC(=O)OCCNC(=O)CC1CC(C)CCC1C(C)C` (stereo not shown) [Compound 5, [2-(2-isopropyl-5-methylcyclohexyl)acetylamino]ethyl acetate]: the Organoleptic qualities entry in series [1] is recorded as “Persistent mentholated”.
Turning to `CNC(=O)C(C)C1CC(C)CCC1C(C)C` (stereo not shown) [Compound 8, 2-(2-isopropyl-5-methylcyclohexyl)-N-methylpropionamide], the Organoleptic qualities result in [1] is recorded as “Piquant, slight”.
For the compound `CC(C)CNC(=O)CC1CC(C)CCC1C(C)C` (stereo not shown) [Compound 2, N-isobutyl-2-(2-isopropyl-5-methylcyclohexyl)acetamide], the Organoleptic qualities entry in series [1] is “Refreshing and tingling”.
The same measure, in the same setting: the same measure for `CC1CCC(C(C)C)C(CC(=O)NCCO)C1` (stereo not shown) [Compound 6, N-(2-hydroxyethyl)-2-(2-isopropyl-5-methylcyclohexyl)acetamide]: “Refreshing and tingling,”; for `CNC(=O)CC(C)C1CC(C)CCC1C(C)C` (stereo not shown) [Compound 9, 3-(2-isopropyl-5-methylcyclohexyl)-N-methylbutyramide]: “Cool”.
Consider `C=C(C)[C@@H]1CC[C@@H](C)C[C@@H]1CC(=O)NC` [Compound 1″, N-methylamide of (1′R,2′R,5′R)-2-[(2′-isopropenyl-5′-methyl)cyclohex-1-yl]acetic acid], for which, in the series on panel of flavor experts, the “difference in perception threshold and intensity of the refreshing effect felt” value is listed as “did not make it possible to demonstrate any notable difference”.
Consider `CC1CCC(C(C)C)C(CC(=O)NCC(=O)O)C1` (stereo not shown) [Compound 3, [2-(2-isopropyl-5-methylcyclohexyl)acetylamino]acetatic acid], for which, in [1], the Organoleptic qualities result is reported as “Warm”.
Same read-out and setting: the value for `C=C(C)C1CCC(C)CC1CC(=O)NCc1ccc(O)c(OC)c1` (stereo not shown) [Compound 16, N-(4-hydroxy-3-methoxybenzyl)-2-(2-isopropenyl-5-methylcyclohexyl)acetamide] was “Powerful piquant with delayed effect, salivating, slightly woody”.
For the compound `CCNC(=O)CC1CC(C)CCC1C(C)C` (stereo not shown) [N-ethyl-2-(2-isopropyl-5-methylcyclohexyl)acetamide], in series [2], the physiological effect entry was “refreshing agent”.
Regarding `CC1CCC(C(C)C)C(CC(=O)Nc2ccc(C#N)cc2)C1` (stereo not shown) [Compound 12, N-(4-cyanophenyl)-2-(2-isopropyl-5-methylcyclohexyl)acetamide], the Organoleptic qualities entry in [1] was “Warm”.
Still for that read-out and setting: the value for `C=C(C)C1CCC(C)CC1CC(=O)NC` (stereo not shown) [Compound 15, 2-(2-isopropenyl-5-methylcyclohexyl)-N-methylacetamide] was “Refreshing”; that for `CNC(=O)C=C1CC(C)CCC1C(C)C` (stereo not shown) [Compound 18, 2-(2-isopropyl-5-methylcyclohexylidene)-N-methylacetamide] was “Refreshing”.
For the compound `CNC(=O)CC1CC(C)CCC1C(C)C` (racemic) [Compound 1, N-methyl-2-(2-isopropyl-5-methylcyclohexyl)acetamide], the “effectiveness as refreshing agent, in terms of intensity and of perception threshold” value in series [1] (comparative study among the refreshing agents 1, 19, 15, 17, 18, 8, 9) was “the most effective”. Besides, the “aromatic note of the drink” value in series [3] (dosage of 30 ppm) was “minty, pine, liquoricy, warming, piquant, salivating”. In addition, in [3] (dosage of 30 ppm), the sensation felt entry is reported as “freshness which came very rapidly after swallowing”. For the same compound, the sensation perceived result was “intense freshness which lasts for a few minutes” in the series with panelists [4]; “persistent freshness, and a change in the lemon profile” in the series with panelists [5].
For the compound `CNC(=O)CC1C=C(C)CCC1C(C)C` (stereo not shown) [Compound 19, 2-(6-isopropyl-3-methylcyclohex-2-enyl)-N-methylacetamide], in series [1], the Organoleptic qualities result is recorded as “Refreshing with a delayed”.
Still for that read-out and setting: the same measure for `CC1CCC(C(C)C)C(CC(=O)Nc2ccc(CC#N)cc2)C1` (stereo not shown) [Compound 13, N-(4-cyanomethylphenyl)-2-(2-isopropyl-5-methylcyclohexyl)acetamide]: “Warm”.
Turning to `COc1cc(CNC(=O)CC2CC(C)CCC2C(C)C)ccc1O` (stereo not shown) [Compound 10, N-(4-hydroxy-3-methoxybenzyl)-2-(2-isopropyl-5-methylcyclohexyl)acetamide], in series [1], the physiological effect entry is “strong piquant-burning physiological effect”. Further, the Organoleptic qualities result in series [1] is “Warm and piquant like pepper, with a salivating effect”. The sensation felt result is “burning and salivation sensation which comes immediately after depositing on the tongue” in [3] (concentration of 1 ppm); “piquant and warming sensation” in the series with panel of tasters. Also, the duration of sensation result in the series on panelists [6] is “more longlasting sensation”.
Consider `CC1CCC(C(C)C)C(CC(=O)NCc2ccc3c(c2)OCO3)C1` (stereo not shown) [Compound 14, N-benzo[1,3]dioxol-5-ylmethyl-2-(2-isopropyl-5-methylcyclohexyl)acetamide], for which the Organoleptic qualities result in series [1] is “Warm and cold at the back of the throat, with a vanilla note”.
In the case of `COC(=O)c1ccccc1NC(=O)CC1CC(C)CCC1C(C)C` (stereo not shown) [Compound 11, N-(2-methyloxycarbonylphenyl)-2-(2-isopropyl-5-methylcyclohexyl)acetamide], in [1], the physiological effect entry is given as “notable warming physiological effect, devoid of the piquant-burning aspect” and the Organoleptic qualities entry is listed as “Warm”.

The values are drawn from patent publication US20120165559A1, “Compounds Having a Physiological Effect” (priority 2009, published 2012).
